Assay: Stroke statin response (SSR) in the CARE pravastatin trial: pravastatin-treated versus placebo-treated, by SNP genotype
Type: in vivo, human
Conditions: CARE; for HR: pravastatin vs placebo; for HR (hazard ratio for stroke, pravastatin vs placebo): rs10757274 (hCV26505812), placebo = ref; for EVENTS (number of stroke events): rs10757274, pravastatin arm; for EVENTS: stroke events in pravastatin arm

Structure (SMILES): CC[C@H](C)C(=O)O[C@H]1C[C@H](O)C=C2C=C[C@H](C)[C@H](CC[C@@H](O)C[C@@H](O)CC(=O)O)[C@H]21 [pravastatin]
- HR (hCV945276 rs89962 KRT4, DOM, genotype TG + TT, 95% CL 0.48-1.027, p 0.0683): 0.7
- HR (hCV945276 rs89962 KRT4, GEN, genotype GG, 95% CL 0.349-1.196, p 0.1641): 0.65
- HR (hCV945276 rs89962 KRT4, GEN, genotype TG, 95% CL 0.423-0.979, p 0.0397): 0.64
- HR (hCV945276 rs89962 KRT4, GEN, genotype TT, 95% CL 0.392-2.375, p 0.9381): 0.96
- HR (hCV945276 rs89962 KRT4, REC, genotype TG + GG, 95% CL 0.458-0.916, p 0.0141): 0.65
- HR (hCV1022614 rs220479 ITGAE, DOM, genotype CT + CC, 95% CL 0.541-1.024, p 0.0696): 0.74
- HR (hCV1022614 rs220479 ITGAE, GEN, genotype CC, 95% CL 0.609-1.295, p 0.5366): 0.89
- HR (hCV1022614 rs220479 ITGAE, GEN, genotype CT, 95% CL 0.257-0.887, p 0.0192): 0.48
- HR (hCV1022614 rs220479 ITGAE, GEN, genotype TT, 95% CL 0.203-4.047, p 0.8969): 0.91
- HR (hCV1022614 rs220479 ITGAE, REC, genotype CT + TT, 95% CL 0.294-0.921, p 0.0248): 0.52
- HR (hCV2091644 rs1010 VAMP8, DOM, genotype CT + CC, 95% CL 0.507-1.126, p 0.1678): 0.76
- HR (hCV2091644 rs1010 VAMP8, GEN, genotype CC, 95% CL 0.51-2.73, p 0.6997): 1.18
- HR (hCV2091644 rs1010 VAMP8, GEN, genotype CT, 95% CL 0.418-1.045, p 0.0763): 0.66
- HR (hCV2091644 rs1010 VAMP8, GEN, genotype TT, 95% CL 0.43-1.186, p 0.1928): 0.71
- HR (hCV2091644 rs1010 VAMP8, REC, genotype CT + TT, 95% CL 0.487-0.961, p 0.0284): 0.68
- HR (hCV2169762 rs1804689 HPS1, DOM, genotype TG + TT, 95% CL 0.612-1.461, p 0.8004): 0.95
- HR (hCV2169762 rs1804689 HPS1, GEN, genotype GG, 95% CL 0.372-0.924, p 0.0214): 0.59
- HR (hCV2169762 rs1804689 HPS1, GEN, genotype TG, 95% CL 0.583-1.468, p 0.7398): 0.92
- HR (hCV2169762 rs1804689 HPS1, GEN, genotype TT, 95% CL 0.266-3.694, p 0.9903): 0.99
- HR (hCV2169762 rs1804689 HPS1, REC, genotype TG + GG, 95% CL 0.529-1.006, p 0.0547): 0.73
- HR (hCV2192261 rs3213646 EXOD1, DOM, genotype CT + CC, 95% CL 0.506-1.048, p 0.0882): 0.73
- HR (hCV2192261 rs3213646 EXOD1, GEN, genotype CC, 95% CL 0.613-1.799, p 0.8592): 1.05
- HR (hCV2192261 rs3213646 EXOD1, GEN, genotype CT, 95% CL 0.328-0.898, p 0.0175): 0.54
- HR (hCV2192261 rs3213646 EXOD1, GEN, genotype TT, 95% CL 0.316-1.278, p 0.2036): 0.64
- HR (hCV2192261 rs3213646 EXOD1, REC, genotype CT + TT, 95% CL 0.379-0.857, p 0.007): 0.57
- HR (hCV7425232 rs3900940 MYH15, DOM, genotype CT + CC, 95% CL 0.468-1.102, p 0.1293): 0.72
- HR (hCV7425232 rs3900940 MYH15, GEN, genotype CC, 95% CL 0.461-2.296, p 0.9448): 1.03
- HR (hCV7425232 rs3900940 MYH15, GEN, genotype CT, 95% CL 0.365-1.022, p 0.0604): 0.61
- HR (hCV7425232 rs3900940 MYH15, GEN, genotype TT, 95% CL 0.442-1.146, p 0.1618): 0.71
- HR (hCV7425232 rs3900940 MYH15, REC, genotype CT + TT, 95% CL 0.467-0.939, p 0.0207): 0.66
- HR (hCV11450563 rs2038366, DOM, genotype GT + GG, 95% CL 0.567-1.148, p 0.2334): 0.81
- HR (hCV11450563 rs2038366, GEN, genotype GG, 95% CL 0.669-1.975, p 0.6132): 1.15
- HR (hCV11450563 rs2038366, GEN, genotype GT, 95% CL 0.381-0.986, p 0.0436): 0.61
- HR (hCV11450563 rs2038366, GEN, genotype TT, 95% CL 0.472-2.724, p 0.7789): 1.13
- HR (hCV11450563 rs2038366, REC, genotype GT + TT, 95% CL 0.463-1.064, p 0.0954): 0.7
- HR (hazard ratio for stroke, pravastatin vs placebo) (adjusted (age, male, current smoking, hypertension, diabetes, BMI, baseline LDL, HDL), mode DOM, genotype GA + GG): 0.73
- HR (hazard ratio for stroke, pravastatin vs placebo) (adjusted (age, male, current smoking, hypertension, diabetes, BMI, baseline LDL, HDL), mode GEN, genotype GA): 0.61
- HR (hazard ratio for stroke, pravastatin vs placebo) (adjusted (age, male, current smoking, hypertension, diabetes, BMI, baseline LDL, HDL), mode GEN, genotype GG): 1
- HR (hazard ratio for stroke, pravastatin vs placebo) (adjusted (age, male, current smoking, hypertension, diabetes, BMI, baseline LDL, HDL), mode REC, genotype GA + AA): 0.69
- HR (hazard ratio for stroke, pravastatin vs placebo) (unadjusted, mode DOM, genotype AG + AA): 0.65
- HR (hazard ratio for stroke, pravastatin vs placebo) (unadjusted, mode GEN, genotype AG): 0.58
- HR (hazard ratio for stroke, pravastatin vs placebo) (unadjusted, mode GEN, genotype GG): 0.91
- HR (hazard ratio for stroke, pravastatin vs placebo) (unadjusted, mode REC, genotype AG + GG): 0.69
- EVENTS (number of stroke events) (adjusted analysis, mode DOM, genotype GA + GG, total 1131): 54
- EVENTS (number of stroke events) (adjusted analysis, mode GEN, genotype AA, total 328): 18
- EVENTS (number of stroke events) (adjusted analysis, mode GEN, genotype GA, total 690): 29
- EVENTS (number of stroke events) (adjusted analysis, mode GEN, genotype GG, total 441): 25
- EVENTS (number of stroke events) (unadjusted, mode DOM, genotype AG + AA, total 981): 44
- EVENTS (number of stroke events) (unadjusted, mode GEN, genotype AA, total 315): 17
- EVENTS (number of stroke events) (unadjusted, mode GEN, genotype AG, total 666): 27
- EVENTS (number of stroke events) (unadjusted, mode GEN, genotype GG, total 414): 23
- EVENTS (number of stroke events) (unadjusted, mode REC, genotype AG + GG, total 1080): 50
- EVENTS (rs1010 VAMP8, DOM, genotype CT + CC, TOTAL 957): 43
- EVENTS (rs1010 VAMP8, GEN, genotype CC, TOTAL 271): 12
- EVENTS (rs1010 VAMP8, GEN, genotype CT, TOTAL 686): 31
- EVENTS (rs1010 VAMP8, GEN, genotype TT, TOTAL 455): 26
- EVENTS (rs1010 VAMP8, REC, genotype CT + TT, TOTAL 1141): 57
- EVENTS (rs89962 KRT4, DOM, genotype TG + TT, TOTAL 912): 46
- EVENTS (rs89962 KRT4, GEN, genotype GG, TOTAL 443): 17
- EVENTS (rs89962 KRT4, GEN, genotype TG, TOTAL 674): 37
- EVENTS (rs89962 KRT4, GEN, genotype TT, TOTAL 238): 9
- EVENTS (rs89962 KRT4, REC, genotype TG + GG, TOTAL 1117): 54
- EVENTS (rs220479 ITGAE, DOM, genotype CT + CC, TOTAL 1381): 67
- EVENTS (rs220479 ITGAE, GEN, genotype CC, TOTAL 973): 52
- EVENTS (rs220479 ITGAE, GEN, genotype CT, TOTAL 408): 15
- EVENTS (rs220479 ITGAE, GEN, genotype TT, TOTAL 46): 3
- EVENTS (rs220479 ITGAE, REC, genotype CT + TT, TOTAL 454): 18
- EVENTS (rs1804689 HPS1, DOM, genotype TG + TT, TOTAL 759): 40
- EVENTS (rs1804689 HPS1, GEN, genotype GG, TOTAL 668): 30
- EVENTS (rs1804689 HPS1, GEN, genotype TG, TOTAL 652): 36
- EVENTS (rs1804689 HPS1, GEN, genotype TT, TOTAL 107): 4
- EVENTS (rs1804689 HPS1, REC, genotype TG + GG, TOTAL 1320): 66
- EVENTS (rs2038366, DOM, genotype GT + GG, TOTAL 1177): 57
- EVENTS (rs2038366, GEN, genotype GG, TOTAL 539): 29
- EVENTS (rs2038366, GEN, genotype GT, TOTAL 638): 28
- EVENTS (rs2038366, GEN, genotype TT, TOTAL 151): 10

Reference: US11401555B2, “Genetic polymorphisms associated with stroke, methods of detection and uses thereof” (CELERA CORPORATION, priority 2008, dated 2022)
